Values after ≈ are worked out from the molar mass of the structure shown. Where two headings read alike, the source gives them in different places. Marks after values point to notes of the source that are not given here.
Tests used:
[1] = cited from earlier work
[2] = physchem; conditions: thermodynamic from solid
Experimental: (§2) The approximate solubilities of the sorbitol co-crystal former were estimated at 60° C. and of the 1:1 dexlansoprazole-sorbitol co-crystal at 40° C. and 10° C. […] The solubility values presented are intended to be regarded as rough estimates and are to be used solely for the design of crystallization experiments. All solvent mixtures are listed as ratios by volume (v/v).
(§3) The solubility values presented are intended to be regarded as rough estimates and are to be used solely for the design of crystallization experiments. All solvent mixtures are listed as ratios by volume (v/v).

[3] = Dynamic vapor sorption (DVS), hygroscopicity; assay type: physicochemical; conditions: for FT-Raman post-DVS compared with pre-DVS/reference (form change): after DVS cycle; for DVS weight gain at 85% relative humidity: 85% r.h.
Experimental: DVS was carried out in a Surface Measurement System DVS-1. The sample was placed on a platinum holder on top of a microbalance and allowed to equilibrate for 2 hours at 50% r.h. before starting the pre-defined humidity program: 50→95% r.h. (5%/h); 5 hours at 95% r.h., 95→0% r.h. (5%/h); 5 h at 0% r.h., then 0→50% r.h. (5%/h); and 2 hours at 50% r.h.
The hygroscopicity was classified based on the mass gain at 85% r.h. relative to the initial mass as follows: deliquescent (sufficient water adsorbed to form a liquid), very hygroscopic (mass increase of ≧15%), hygroscopic (mass increase <15% but ≧2%), slightly hygroscopic (mass increase <2% but ≧0.2%), or non-hygroscopic (mass increase <0.2%).
In order to examine the behavior of SP134-SBT-P26 in the presence of variable water vapor pressure, the sample was analyzed by isothermal DVS at 25° C. […] The sample was conditioned at 50% r.h. before starting a pre-defined humidity program with a scanning rate of 5% r.h. change per hour. Below 50% r.h. a small but continuous mass loss of the sample is observed (˜0.07%). This mass loss is in good accordance to the results of the TG-FTIR-measurement and Karl Fischer water content determination.
In order to examine the behavior of SP134-SBT-P27 in the presence of variable water vapor pressure, the sample was analyzed by isothermal DVS at 25° C. The sample was conditioned at 50% r.h. before starting a pre-defined humidity program with a scanning rate of 5% r.h. change per hour. Below 50% r.h. a small but continuous mass loss of the sample is observed (˜0.06%). This mass loss is in good accordance to the results of the TG-FTIR-measurement and Karl Fischer water content determination.

[4] = Approximate solubility by manual dilution combined with visual observation; conditions: for solubility / Solubility (mg/mL): room temperature
Experimental: as §2, §3

[5] = Kinetic solubility experiment in water; assay type: physicochemical
Experimental: (§1) HPLC was carried out in a TSP instrument with a P4000 pump, an AS3000 autosampler, an SCM1000 degasser, a UV3000 detector, and PC1000 Version 4.1 software.
A further experiment to evaluate the kinetic solubility was carried out. The maximum was reached already after 15 minutes and that the concentration in the solution remained constant for the duration of the experiment.

[6] = Aqueous solubility, 24 h equilibration, HPLC of filtrate; assay type: physicochemical
Experimental: as §1
The pH of the corresponding saturated solution was 6.1. […] This may be due to chemical instability of dexlansoprazole in the solution environment.

[7] = Stability of the co-crystal as a solid and in water or solution; conditions: for Stability in water for 24 hours: 25° C., disintegration into its components
Experimental: Solubility was determined by adding approximately 0.5 mL of doubly distilled water to 19.1 mg of the substance to be measured. The resulting suspension was equilibrated in a temperature-controlled Eppendorf Thermomixer Comfort Shaker for 24 hours at 25° C. at a shaking rate of 500 rpm. The solid phase was recovered by filter centrifugation (0.1-μm PVDF membrane) and examined by FT-Raman spectroscopy. Concentrations in the filtrate (i.e., saturated solutions) or diluted solutions thereof were determined using the HPLC method disclosed herein. The pH of the saturated solution was determined with a Metrohm 713 pH meter.

[8] = Approximate solubility tests in selected solvents; assay type: physicochemical; conditions: organic solvent or mixture, read-out: Solubility [S, mg/ml]
Excerpt: A sample of dexlansoprazole sesquihydrate was characterized by FT-Raman spectroscopy, XRPD, ^1H-NMR and approximate solubility tests.
Accordingly, ethanol, ethyl acetate, acetonitrile, and THF were chosen as solvents for the co-crystal screening.

[9] = 1:1 EtOAc/DMSO (v/v), organic solvent or mixture
[10] = 1:1 EtOH/H2O (v/v), aqueous with cosolvent or surfactant or cyclodextrin
[11] = 2:1 EtOH/H2O + 5 vol.-% NH3 solution, aqueous with cosolvent or surfactant or cyclodextrin
[12] = 2:1 MeOH/H2O + 5 vol.-% NH3 solution, aqueous with cosolvent or surfactant or cyclodextrin
[13] = 2:1 MeOH/borax buffer, pH 9, aqueous with cosolvent or surfactant or cyclodextrin
[14] = 9:1 EtOAc/DMSO (v/v), organic solvent or mixture
[15] = DMSO, organic solvent or mixture
[16] = EtOAc, organic solvent or mixture
[17] = MeOH, organic solvent or mixture
[18] = isothermal DVS at 25° C., listed as SP134-SBT-P27

Cc1c(OCC(F)(F)F)ccnc1C[S@@+]([O-])c1nc2ccccc2[nH]1 [Dexlansoprazole]
Descriptive solubility ([1]; acetonitrile): soluble
Descriptive solubility ([1]; dichloromethane): freely soluble
Descriptive solubility ([1]; dimethyl formamide): freely soluble
Descriptive solubility ([1]; ethanol): freely soluble
Descriptive solubility ([1]; ether): slightly soluble
Descriptive solubility ([1]; ethyl acetate): freely soluble
Descriptive solubility ([1]; hexane): substantially insoluble
Stability when exposed to light ([1]; light): stable
Descriptive solubility ([1]; methanol): freely soluble
Stability depending on pH conditions ([1]; neutral and alkaline vs acidic conditions): more stable in neutral and alkaline conditions than acidic conditions
Descriptive solubility ([1]; water): very slightly soluble

OC[C@@H](O)[C@@H](O)[C@H](O)[C@@H](O)CO [Sorbitol, D-sorbitol]
solubility ([2]; 1:1 DMSO/EtOH (v/v), 60 °C, organic solvent or mixture): > 102 mg/mL
solubility [2, 9]: 125 to 250 mg/mL (≈ 686 to 1370 mM)
solubility ([2]; 1:1 EtOAc/EtOH (v/v), 60 °C, organic solvent or mixture): 3 mg/mL (≈ 16.5 mM)
solubility [2, 10]: ~160 mg/mL (≈ 878 mM)
solubility ([2]; 1:2 EtOAc/EtOH (v/v), 60 °C, organic solvent or mixture): 6 mg/mL (≈ 32.9 mM)
solubility ([2]; 1:3 DMSO/EtOH (v/v), 60 °C, organic solvent or mixture): 54 to 108 mg/mL (≈ 296 to 593 mM)
solubility ([2]; 1:3 EtOAc/EtOH (v/v), 60 °C, organic solvent or mixture): 10 mg/mL (≈ 54.9 mM)
solubility ([2]; 1:5 DMSO/EtOH (v/v), 60 °C, organic solvent or mixture): 39 to 59 mg/mL (≈ 214 to 324 mM)
solubility ([2]; 1:5 EtOAc/EtOH (v/v), 60 °C, organic solvent or mixture): 11 mg/mL (≈ 60.4 mM)
solubility [2, 11]: 125 to 250 mg/mL
solubility [2, 12]: > 250 mg/mL
solubility [2, 13]: > 250 mg/mL
solubility [2, 14]: ~1 mg/mL (≈ 5.49 mM)
solubility [2, 15]: > 200 mg/mL
solubility [2, 16]: < 1 mg/mL
solubility [2, 17]: ~13 mg/mL (≈ 71.4 mM)
solubility ([2]; water): > 200 mg/mL

Cc1c(OCC(F)(F)F)ccnc1C[S@@+]([O-])c1nc2ccccc2[nH]1.OC[C@@H](O)[C@@H](O)[C@H](O)[C@@H](O)CO [SP134-SBT-P26]
FT-Raman post-DVS compared with pre-DVS/reference (form change) [3]: no phase transition
DVS water uptake at about 85% r.h. relative to the mass at 0% r.h. ([3]; isothermal DVS at 25° C.): 0.12%
DVS water uptake at about 85% r.h. relative to the mass at 0% r.h. [3, 18]: 0.08%
DVS mass loss below 50% r.h. ([3]; isothermal DVS at 25° C.): ~0.07%
DVS mass loss below 50% r.h. [3, 18]: ~0.06%
Hygroscopicity class ([3]; isothermal DVS at 25° C., water uptake at about 85% r.h. relative to the mass at 0% r.h.): not hygroscopic
Approximate solubility ([4]; 1:3 DMSO/EtOH, 10° C.): 14 to 16 mg/mL
Approximate solubility ([4]; 1:3 DMSO/EtOH, 40° C.): 50 to 63 mg/mL
Approximate solubility ([4]; 1:4 DMSO/EtOH, 10° C.): 11.5 to 12.5 mg/mL
Approximate solubility ([4]; 1:4 DMSO/EtOH, 40° C.): >37 mg/mL
Approximate solubility ([4]; 1:5 DMSO/EtOH, 10° C.): 9.3 to 9.8 mg/mL
Approximate solubility ([4]; 1:5 DMSO/EtOH, 40° C.): 17 to 23 mg/mL
Solubility relative to sorbitol and dexlansoprazole ([4]; DMSO/EtOH, 40° C.): less soluble than sorbitol and dexlansoprazole

Cc1c(OCC(F)(F)F)ccnc1C[S+]([O-])c1nc2ccccc2[nH]1.Cc1c(OCC(F)(F)F)ccnc1C[S+]([O-])c1nc2ccccc2[nH]1.OCC(O)C(O)C(O)C(O)CO.OCC(O)C(O)C(O)C(O)CO.OCC(O)C(O)C(O)C(O)CO (stereo not shown) [SP134-SBT-P7]
Reversibility of DVS weight gain and loss [3]: reversible
DVS weight loss at 0% r.h. relative to the starting weight ([3]; 0% r.h.): < 1 wt.-%
DVS weight increase at 50% r.h. on desorption relative to the starting weight ([3]; 50% r.h. after lowering from 95% r.h.): ~1 wt. %
DVS step in weight gain ([3]; 70-75% r.h.): ~4 wt.-%
DVS weight gain at 85% relative humidity [3]: (~70-75% r.h.), gain of ~7 wt.-% at 85% r.h.;
DVS weight gain at 85% relative humidity ([3]; listed as sorbitol co-crystal): ~7 wt.-%
FT-Raman post-DVS compared with pre-DVS/reference (form change) [3]: no significant changes
Hygroscopicity class ([3]; mass gain at 85% r.h. relative to the initial mass, listed as sorbitol co-crystal): hygroscopic (mass increase <15% but ≧2%)
DVS weight gain at 95% relative humidity ([3]; r.h. raised from 50% to 95%): 20 wt.-%
solubility ([4]; 1:1 EtOAc/DMSO): >200 mg/mL
Solubility (mg/mL) ([4]; 1:1 EtOH/H2O): 50-100^a mg/mL
solubility ([4]; 2:1 EtOH/H2O + 5 vol.-% NH3 solution): 60 to 100 mg/mL
solubility ([4]; 2:1 MeOH/H2O + 5 vol.-% NH3 solution): 60 to 100 mg/mL
Solubility (mg/mL) ([4]; 2:1 MeOH/borax buffer (pH = 9.0)): 45-65^a mg/mL
solubility ([4]; 9:1 EtOAc/DMSO): ~10 mg/mL
solubility ([4]; EtOAc): <1 mg/mL
Solubility (mg/mL) ([4]; H2O): 0.25^a mg/mL
Solubility as a function of time, constant value reached ([5]; after 15 minutes): 0.25 mg/mL
Kinetic solubility in water ([5]; 15 min): 0.25 mg dexlansoprazole per ml
Kinetic solubility in water ([5]; 30 min): 0.26 mg dexlansoprazole per ml
Kinetic solubility in water ([5]; 1 hour): 0.26 mg dexlansoprazole per ml
Kinetic solubility in water ([5]; 2 hour): 0.24 mg dexlansoprazole per ml
Kinetic solubility in water ([5]; 4 hrs.): 0.27 mg dexlansoprazole per ml
Kinetic solubility in water ([5]; 8 hrs.): 0.27 mg dexlansoprazole per ml
Solubility in water ([6]; 24 hours equilibration at 22° C., solid residue was free drug, so value corresponds to free drug): 0.18 mg/mL
pH of the saturated solution ([6]; water, 24 hours equilibration): 6.1
Stability as a solid ([7]; solid): stable
Stability in water for 24 hours [7]: solid form not stable in H2O for 24 h, disintegrates
Stability in water for 24 hours ([7]; listed as dexlansoprazole/sorbitol co-crystal): not stable

Cc1c(OCC(F)(F)F)ccnc1C[S@@+]([O-])c1nc2ccccc2[nH]1 [SP134-FD-P1, dexlansoprazole sesquihydrate, reference compound]
solubility ([8]; MEK): ~226 mg/mL
solubility ([8]; THF): ~228 mg/mL
solubility ([8]; acetone): ~230 mg/mL
solubility ([8]; acetonitrile): ~210 mg/mL
solubility ([8]; ethanol): ~228 mg/mL
solubility ([8]; ethyl acetate): ~204 mg/mL
solubility ([8]; methanol): ~204 mg/mL
solubility [2, 9]: > 200 mg/mL
solubility [2, 10]: ~30 mg/mL
solubility [2, 11]: 100 to 200 mg/mL
solubility [2, 12]: 100 to 200 mg/mL
solubility [2, 13]: 90 to 190 mg/mL
solubility [2, 14]: > 200 mg/mL
solubility [2, 15]: > 200 mg/mL
solubility [2, 16]: > 20 mg/mL
solubility [2, 17]: > 200 mg/mL
solubility ([2]; ethanol, organic solvent or mixture): > 200 mg/mL
solubility ([2]; water): < 1 mg/mL

— US8318943B1, “Sorbitol/dexlansoprazole co-crystals and method for making same” (Takeda Pharmaceuticals U.S.A., Inc., priority 2010, dated 2012)
